Source: patent US20250275946A1, “COMBINATION THERAPY FOR THE TREATMENT OF CANCER” (UNM RAINFOREST INNOVATIONS, priority 2021, published 2025)
Read-outs that look alike come from different tables or passages of the source.

What was measured:
MC38 cells [1] = experiment: MTT assay in MC38 cells; assay type: cell-based, murine; conditions: MC38, 10 μM DFX and/or 10 μM 5-FU, 48 hours, FIG. 7P
Description: (§1) Human HCT116, RKO, SW480, HEK293T and murine MC38 CRC cells were maintained at 37° C. in 5% CO2 and cultured in Dulbecco's modified Eagle medium (DMEM) supplemented with 10% fetal bovine serum (FBS) and 1% penicillin and streptomycin (VWR, Radnor, PA). HCT116 p53+/+ and p53−/− cells were a kind gift from Professor Bert Vogelstein at the Johns Hopkins University. For generating stable cell lines, MC38 cells were transfected with a mouse shTFRC plasmid (TRCN0000375695, Sigma, St. Louis, MO) or a mouse shPOLD1 plasmid (TRCN0000428858, Sigma), RKO cells were transfected with a human shPOLD1 plasmid (TRCN0000007924, Sigma) and selected with 1 μg/ml puromycin.
(§2) Cells were plated at a concentration of 5×10^4 cells/mL in a 24 well plates. 125 μL 5 mg/mL MTT (Sigma, MO) was added to each plate and incubated for 30 min. Dimethyl sulfoxide (DMSO) was added and absorbance was measured at 570 nm using a BioTek Synergy HTX Multi-Mode Microplate Reader.

MC38 cells [2] = experiment: Immunoblotting analysis in MC38 cells; assay type: cell-based, murine; conditions: MC38, 10 μM DFX and/or 10 μM 5-FU, 48 hours, FIG. 7Q
Description: as §1
Cells and tumor tissues were lysed with radioimmunoprecipitation assay buffer. After incubation, cell extracts were centrifuged and the supernatant was collected for Bradford assay to quantify protein concentration by a BioTek Synergy HTX Multi-Mode Microplate Reader (BioTek, Winooski, VT). Equal amounts (20-50 μg) of protein were loaded for sodium dodecyl sulfate polyacrylamide gel electrophoresis (SDS-PAGE). The proteins inside the gels were transferred onto nitrocellulose membrane with a wet transfer method. The membranes were blocked with 3% milk for 1 hour. Primary antibodies were incubated overnight. Secondary antibodies were incubated for 1 hour. […]

[3] = system: xenografts from MC38 cells; experiment: Subcutaneous MC38 xenograft combination therapy in C57BL/6 mice; assay type: in vivo; conditions: 20 mg/kg DFX every other day, 1 mg/kg 5-FU daily, or combination, FIG. 7R
Description: For subcutaneous xenograft study, 1×10^6 syngeneic MC38 cells with Tfrc or Pold1 knockdown were injected into the flanks of C57BL/6 mice. Two weeks later, mice were sacrificed and tumors were collected. For combination therapy, when tumors are palpable at one week after subcutaneous injection of MC38 cells, C57BL/6 mice were treated with vehicle, 20 mg/kg DFX for every other day, 1 mg/kg 5-fluorouracil (5-FU) daily, or the combination of DFX and 5-FU.

[4] = system: HCT116, SW480 or RKO cancer cells; experiment: Immunoblotting analysis in human colon-derived cancer cells; assay type: cell-based
Description: as §1
Cells and tumor tissues were lysed with radioimmunoprecipitation assay buffer. After incubation, cell extracts were centrifuged and the supernatant was collected for Bradford assay to quantify protein concentration by a BioTek Synergy HTX Multi-Mode Microplate Reader (BioTek, Winooski, VT). Equal amounts (20-50 μg) of protein were loaded for sodium dodecyl sulfate polyacrylamide gel electrophoresis (SDS-PAGE). The proteins inside the gels were transferred onto nitrocellulose membrane with a wet transfer method. The membranes were blocked with 3% milk for 1 hour. Primary antibodies were incubated overnight. Secondary antibodies were incubated for 1 hour. Antibodies for ferritin heavy chain (FTH1, #3998), IRP2 (#37135), active beta catenin (#8814), Anti-rabbit IgG HRP-linked Antibody (#7074) and Anti-mouse IgG HRP-linked Antibody (#7076) were from Cell signaling Technology (Danvers, MA). Primary antibodies for TFRC (sc-393719), HIF-1α, (sc-13515), HIF-2a (sc-13596), pS6 (sc-514033), pS6K (sc-8418), RRM2 (sc-398294), p-p53 (sc-377567), p53 (sc-6243), c-MYC (sc-40), GAPDH (sc-47724), Cyclin D1 (sc-718) and Actin (sc-8432) were from Santa Cruz Biotechnology (Dallas, TX). p-RPA2 (PA5-39809) was from Invitrogen (Carlsbad, CA). POLD1 (15646-1-AP), p-CHK1 (28805-1-AP), E2F1 (66515-1-Ig), Axin2 (20540-1-AP) and TNKS (18030-1-AP) were from Proteintech (Rosemont, IL).

[5] = system: patient-derived tumor colonoids; experiment: RNA-seq analysis of patient-derived tumor colonoids treated with DFO; assay type: cell-based, human; conditions: DFO 100 μM in KGMG medium, 4 days
Description: The adenoma colonoids culture was described previously. See Xue, et al., Cell Metab, 2016; 24: pp. 447-461). The culture plates were placed in a 37° C. incubator for 30 min to solidify the Matrigel, followed by the addition of 1 mL serum-free Keratinocyte Growth Media Gold (KGMG, Catalogue: 00195769, Lonza, Basel, Switzerland). After 24 hours of plating, colonoids were treated with DFO (0 or 100 μM) in KGMG for 4 days with fresh media change every other day. At the end of the experiment, culture media was aspirated off, and colonoids were lysed with Trizol to extract RNA.
RNA sequencing libraries were prepared using the TruSeq RNA library prep kit v2 (Illumina) following the manufacturer's recommended protocol. The libraries were sequenced using single-end 50-cycle reads on a HiSeq 4000 sequencer (Illumina) at the University of Michigan DNA Sequencing Core Facility. Raw sequencing read quality was assessed utilizing FastQC. Reads were aligned to the reference human transcriptome (UCSC) using STAR 2.5.2a. Default parameters were used for the alignment, with the exception of “--outFilterMultimapNmax 10” and “--sjdbScore 2”. Expression quantification and differential expression analysis between DFO and control tumor colonoids were conducted using CuffDiff v 2.1.1 using default settings. […]

[6] = cited from earlier work
[7] = system: advanced hepatocellular carcinoma; conditions: cohort of 10 advanced hepatocellular carcinoma; cited from earlier work
[8] = mice; cited from earlier work
SW480 cells = experiment: MTT assay in SW480 cells; assay type: cell-based, human; conditions: 48 hours
Description: as §1, §2

[9] = humans; cited from earlier work
B-family DNA polymerases = conditions: aphidicolin combined with CHK1 inhibitors; cited from earlier work
cancer cells = conditions: cited from earlier work
MC38 cells [10] = experiment: Ferro-Orange staining of cellular ferrous iron; assay type: cell-based, murine; conditions: FIG. S6D
Description: Cells (2×10^5 cells/well) were plated into 24 well plates. After seeding, pre-warmed DMEM containing 0.5 μM ferroOrange (dojindo, Rockville, MD), was incubated at 37° C. for 30 min. After incubation, the cell images were taken. Representative images were taken using the RFP channel of an Invitrogen™ EVOS™ FL Auto Imaging System (Thermo Fisher Scientific, Waltham, MA). Fluorescence intensity was quantified using a SpectraMax M2 Microplate Reader (Molecular Devices, Radnor, PA) at excitation 543 nm and emission 580 nm. The intensity was normalized with protein concentrations.

With `O=c1[nH]cc(F)c(=O)[nH]1` [5-FU, 5-fluorouracil] the “growth suppressive effect of DFX in vitro (MTT)” value (MC38 cells [1]) was “potentiated”, the “DDR of DFX (immunoblotting)” value (MC38 cells [2]) was “potentiated” and the “growth suppressive effect of DFX in vivo (tumor weight)” value [3] was “potentiated”.

In the case of `CCc1ccc(/C=C2/SC(=S)NC2=O)cc1` [10058-F4], the “E2F1 and POLD1 protein” value ([4]; SW480 cells, c-Myc inhibitor overnight, FIG. S5G) is reported as “reduced”.

For `CC(=O)N(O)CCCCCNC(=O)CCC(=O)N(O)CCCCCNC(=O)CCC(=O)N(O)CCCCCN` [DFO, deferoxamine], the “decrease of POLD1 gene expression (RNA-seq)” value [5] is listed as 4.31 fold, the “decrease of RRM2 gene expression (RNA-seq)” value [5] is listed as 3.28 fold and the circulation half-life ([6]; humans) is listed as “approximately 20 min”. The “circulation half-life” value ([6]; in vivo) was “extremely short”, the severe adverse events [7] was “without severe adverse events” and the circulation half-life [8] was roughly 5 min.

With `COc1cccc(OCCCN)c1-c1cc(Nc2cnc(C#N)cn2)n[nH]1` [Prexasertib] the “synergistic effect on cell growth (MTT)” value (SW480 cells; SW480, 10 μM DFO and/or 100 nM Prexasertib, FIG. S7F) was “synergistic effect was further validated”.

With `CNCc1ccc(-c2cc(-c3nc(-c4ccc(S(=O)(=O)C(C)C)cc4)cnc3N)on2)cc1` [VE-822] the “synergistic effect on cell growth (MTT)” value (SW480 cells; SW480 and MC38 cells, 10 μM DFX, 10 uM VE-822 or 100 nM Prexasertib, FIG. S7G, S7H) was “synergistic effect was further validated”.

For `Oc1nc(-c2ccc(C(F)(F)F)cc2)nc2c1CSCC2` [XAV939], the “suppressive effect of DFO on c-Myc, E2F1, POLD1 and Cyclin D1” value ([4]; SW480 cells, DFO and/or XAV939, FIG. 5N) was “potentiated”, the “expression of TNKS and Axin2” value ([4]; SW480 cells, FIG. 5N) was “increased” and the “iron-repressed Axin2” value ([4]; SW480 cells, FS and/or XAV939, FIG. 5O) was “rescued”. The “c-Myc, E2F1, POLD1 and Cyclin D1 protein” value ([4]; SW480 cells, even with iron supplementation, FIG. 5O) was “suppressed”.

In the case of `C[C@@]1(CO)[C@H](O)CC[C@@]2(C)[C@H]1CC[C@H]1C[C@@H]3C[C@@]12CC[C@]3(O)CO` [aphidicolin], the toxicity [9] is given as “too toxic to be used in humans” and the cancer cell proliferation (B-family DNA polymerases) is given as “synergistic inhibition”.

In the case of `c1ccc(CNC2CC(NCc3ccccn3)CC(NCc3ccccn3)C2)nc1` (stereo not drawn) [tachpyridine, N,N′,N″-tris(2-pyridylmethyl)-cis,cis-1,3,5-triaminocyclohexane], the “sensitivity to ionizing radiation induced DNA damage” value (cancer cells; cancer cells (not noncancer cells)) is listed as “sensitizes cancer cells” and the cell cycle (cancer cells; via ATR-dependent activation of CHK1) is listed as “induces G2 cell cycle arrest”.

With ferrous sulfate [FS] the “orange fluorescence signal (cellular ferrous iron)” value (MC38 cells [10]) was “greatly increased” and the “rescue of DFO-decreased POLD1” value ([4]; HCT116 cells, 100 μM DFO and different doses of FS, FIG. 5E) was “can rescue”.
